The assay addresses cytochrome bo3 (cbo3), ubiquinol oxidase (Escherichia coli, UniProt P0ABI8). Type of assay: biochemical.

Sequence of cytochrome bo3 (cbo3), ubiquinol oxidase (P0ABI8 whole entry): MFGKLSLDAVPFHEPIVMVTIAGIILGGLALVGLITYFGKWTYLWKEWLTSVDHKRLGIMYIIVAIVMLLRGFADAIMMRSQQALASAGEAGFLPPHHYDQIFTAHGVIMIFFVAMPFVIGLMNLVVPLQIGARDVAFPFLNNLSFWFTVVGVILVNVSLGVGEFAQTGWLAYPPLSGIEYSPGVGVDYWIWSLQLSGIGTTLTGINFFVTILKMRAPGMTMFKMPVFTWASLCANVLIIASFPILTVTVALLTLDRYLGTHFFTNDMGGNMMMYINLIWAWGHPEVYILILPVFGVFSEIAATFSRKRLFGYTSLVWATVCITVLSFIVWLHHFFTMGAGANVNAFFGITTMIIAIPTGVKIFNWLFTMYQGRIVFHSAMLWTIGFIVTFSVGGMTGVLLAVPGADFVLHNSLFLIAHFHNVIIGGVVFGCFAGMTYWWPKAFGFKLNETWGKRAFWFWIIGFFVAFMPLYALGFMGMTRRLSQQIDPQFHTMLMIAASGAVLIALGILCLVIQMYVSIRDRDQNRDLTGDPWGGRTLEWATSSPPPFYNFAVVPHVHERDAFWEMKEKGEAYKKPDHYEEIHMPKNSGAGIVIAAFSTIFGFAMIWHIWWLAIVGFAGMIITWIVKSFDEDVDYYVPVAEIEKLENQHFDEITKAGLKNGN
Sequence of cytochrome bo3 (cbo3), ubiquinol oxidase (P0ABJ1 25-315 partner): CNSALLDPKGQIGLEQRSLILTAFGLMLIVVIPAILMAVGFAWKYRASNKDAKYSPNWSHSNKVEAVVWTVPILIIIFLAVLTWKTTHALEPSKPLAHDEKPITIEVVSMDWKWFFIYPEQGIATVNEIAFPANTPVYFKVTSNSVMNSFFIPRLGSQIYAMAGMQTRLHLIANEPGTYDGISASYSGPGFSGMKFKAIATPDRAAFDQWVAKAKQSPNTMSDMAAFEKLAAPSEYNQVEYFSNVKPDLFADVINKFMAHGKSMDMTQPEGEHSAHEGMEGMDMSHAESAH
Sequence of cytochrome bo3 (cbo3), ubiquinol oxidase (P0ABJ3 whole entry partner): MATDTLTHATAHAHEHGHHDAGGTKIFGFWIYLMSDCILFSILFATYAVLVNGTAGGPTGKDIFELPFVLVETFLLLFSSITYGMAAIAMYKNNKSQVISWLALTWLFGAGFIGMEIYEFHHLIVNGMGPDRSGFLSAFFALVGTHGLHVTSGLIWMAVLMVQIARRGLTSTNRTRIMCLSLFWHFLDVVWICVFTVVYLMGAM
Sequence of cytochrome bo3 (cbo3), ubiquinol oxidase (P0ABJ6 whole entry partner): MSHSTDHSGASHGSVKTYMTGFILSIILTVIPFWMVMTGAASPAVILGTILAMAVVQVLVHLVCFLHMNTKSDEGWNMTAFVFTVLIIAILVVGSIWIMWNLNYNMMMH

For `CCCCCCCc1cc(O)c2ccccc2[n+]1[O-]` [2-n-Heptyl-4-hydroxyquinoline N-oxide], it took 28.7 ± 2.1 µM to reach half-maximal inhibition (IC50).

For the origin of these results see publication PMC3827738 (Biochimica et biophysica acta, 2010).
